Drawing on patent publication EP3623369A1, “NOVEL MORPHOLINYL AMINE COMPOUNDS FOR THE TREATMENT OF AUTOIMMUNE DISEASE” (F. Hoffmann-La Roche AG, priority 2018, dated 2020), this text covers IC50 for 20 compounds.

For the experiment, the target named is T1, human TLR8 (Homo sapiens, UniProt Q9NR97).
T1 sequence (Q9NR97 27-1041): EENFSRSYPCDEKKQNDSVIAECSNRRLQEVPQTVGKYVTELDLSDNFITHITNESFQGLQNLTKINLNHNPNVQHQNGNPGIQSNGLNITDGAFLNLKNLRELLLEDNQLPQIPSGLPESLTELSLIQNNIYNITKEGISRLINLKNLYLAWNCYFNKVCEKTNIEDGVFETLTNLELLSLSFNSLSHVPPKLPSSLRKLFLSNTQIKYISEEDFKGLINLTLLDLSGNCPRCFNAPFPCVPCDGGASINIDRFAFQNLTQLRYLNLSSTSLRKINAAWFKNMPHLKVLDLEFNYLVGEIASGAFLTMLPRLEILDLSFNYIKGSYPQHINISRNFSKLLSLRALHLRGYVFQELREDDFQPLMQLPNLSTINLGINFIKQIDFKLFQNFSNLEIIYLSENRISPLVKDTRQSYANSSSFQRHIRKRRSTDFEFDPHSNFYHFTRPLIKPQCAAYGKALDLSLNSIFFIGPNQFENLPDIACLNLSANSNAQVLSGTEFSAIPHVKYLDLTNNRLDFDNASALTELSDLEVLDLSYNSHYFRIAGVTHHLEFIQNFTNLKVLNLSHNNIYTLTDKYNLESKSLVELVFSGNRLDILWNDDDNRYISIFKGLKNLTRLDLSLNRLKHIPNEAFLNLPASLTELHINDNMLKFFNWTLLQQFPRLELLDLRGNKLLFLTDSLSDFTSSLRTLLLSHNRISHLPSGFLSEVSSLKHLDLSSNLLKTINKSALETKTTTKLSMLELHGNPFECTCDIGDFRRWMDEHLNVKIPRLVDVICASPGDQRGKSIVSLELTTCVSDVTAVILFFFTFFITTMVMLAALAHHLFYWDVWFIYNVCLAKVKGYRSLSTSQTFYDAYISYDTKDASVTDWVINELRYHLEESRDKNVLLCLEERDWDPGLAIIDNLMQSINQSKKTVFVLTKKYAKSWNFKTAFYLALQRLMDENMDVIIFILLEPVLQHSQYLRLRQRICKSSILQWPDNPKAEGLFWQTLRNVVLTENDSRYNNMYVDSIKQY
Put plainly: HEK293-Blue-hTLR-8 cells assay (SEAP reporter, R848 stimulation). The conditions noted are these: HEK293-Blue-hTLR8 cells, R848, 20 hrs; 0.003 is the lowest tested concentration; read-out: HEK/hTLR8 IC50. It counts as cell-based. On the procedure: The following tests were carried out in order to determine the activity of the compounds of formula (I) or (Ia) in HEK293-Blue-hTLR-7/8/9 cells assay.
HEK293-Blue-hTLR-8 cells assay:
A stable HEK293-Blue-hTLR-8 cell line was purchased from InvivoGen (Cat.#: hkb-htlr8, San Diego, California, USA). These cells were originally designed for studying the stimulation of human TLR8 by monitoring the activation of NF-κB. A SEAP (secreted embryonic alkaline phosphatase) reporter gene was placed under the control of the IFN-β minimal promoter fused to five NF-κB and AP-1-binding sites. The SEAP was induced by activating NF-κB and AP-1 via stimulating HEK-Blue hTLR8 cells with TLR8 ligands. Therefore the reporter expression was declined by TLR8 antagonist under the stimulation of a ligand, such as R848, for incubation of 20 hrs. The cell culture supernatant SEAP reporter activity was determined using QUANTI-Blue™ kit (Cat.#: rep-qb1, Invivogen, San Diego, Ca, USA) at a wavelength of 640 nm, a detection medium that turns purple or blue in the presence of alkaline phosphatase.
HEK293-Blue-hTLR8 cells were incubated at a density of 250,000∼450,000 cells/mL in a volume of 170 µL in a 96-well plate in Dulbecco's Modified Eagle's medium (DMEM) containing 4.5 g/L glucose, 50 U/mL penicillin, […], […], 2 mM L-glutamine, 10% (v/v) heat-inactivated fetal bovine serum with addition of 20 µL test compound in a serial dilution in the presence of final DMSO at 1% and 10 µL of 60uM R848 in above DMEM, perform incubation under 37 °C in a CO2 incubator for 20 hrs. Then 20 µL of the supernatant from each well was incubated with 180 µL Quanti-blue substrate solution at 37°C for 2 hrs and the absorbance was read at 620∼655 nm using a spectrophotometer. The signalling pathway that TLR8 activation leads to downstream NF-κB activation has been widely accepted, and therefore similar reporter assay was modified for evaluating TLR8 antagonist.

The structures appear in SMILES notation. Bounds are passed on as bounds.

With `C[C@@H]1CN(c2ccc(C#N)n3nccc23)C[C@H](CN2Cc3ccc(OCCN(C)C)cc3C2)O1` [Example 28, 4-[(2S,6R)-2-[[5-[2-(dimethylamino)ethoxy]isoindolin-2-yl]methyl]-6-methyl-morpholin-4-yl]pyrazolo[1,5-a]pyridine-7-carbonitrile], the IC50 amounted to 0.058 µM. Then `C[C@@H]1CN(c2ccc(C#N)n3ncc(F)c23)C[C@H](CN2Cc3cc(N4CCNCC4)cnc3C2)O1` [Example 29, 3-fluoro-4-[(2R,6S)-2-methyl-6-[(3-piperazin-1-yl-5,7-dihydropyrrolo[3,4-b]pyridin-6-yl)methyl]morpholin-4-yl]pyrazolo[1,5-a]pyridine-7-carbonitrile], with 0.014 µM; and `C[C@@H]1CN(c2ccc(C#N)c3nccnc23)C[C@H](CN2Cc3cc(N4CCNCC4)cnc3C2)O1` [Example 30, 8-[(2R,6S)-2-methyl-6-[(3-piperazin-1-yl-5,7-dihydropyrrolo[3,4-b]pyridin-6-yl)methyl]morpholin-4-yl]quinoxaline-5-carbonitrile], with 0.003 µM; and `C[C@@H]1CN(c2ccc(Cl)c3ncccc23)C[C@H](CN2Cc3ccc(N4CCNCC4)cc3C2)O1` [Example 31, (2R,6S)-4-(8-chloro-5-quinolyl)-2-methyl-6-[(5-piperazin-1-ylisoindolin-2-yl)methyl]morpholine], with 0.013 µM. As for `C[C@@H]1CN(c2ccc(Cl)c3ncccc23)C[C@H](CN2CCc3cc(N4CCNCC4)ccc3C2)O1` [Example 32, (2R,6S)-4-(8-chloro-5-quinolyl)-2-methyl-6-[(6-piperazin-1-yl-3,4-dihydro-1H-isoquinolin-2-yl)methyl]morpholine], the IC50 amounted to 0.017 µM. As to `C[C@@H]1CN(c2ccc(Cl)c3nccnc23)C[C@H](CN2Cc3ccc(N4CCNCC4)cc3C2)O1` [Example 33, (2R,6S)-4-(8-chloroquinoxalin-5-yl)-2-methyl-6-[(5-piperazin-1-ylisoindolin-2-yl)methyl]morpholine], the IC50 is 0.005 µM. For `C[C@@H]1CN(c2ccc(Cl)c3nccnc23)C[C@H](CN2CCc3cc(N4CCNCC4)ccc3C2)O1` [Example 34, (2R,6S)-4-(8-chloroquinoxalin-5-yl)-2-methyl-6-[(6-piperazin-1-yl-3,4-dihydro-1H-isoquinolin-2-yl)methyl]morpholine], the IC50 was found to be 0.005 µM. Then `C[C@@H]1CN(c2ccc(C#N)c3nccnc23)C[C@H](CN2Cc3ccc(N4CCN(C5CC5)CC4)cc3C2)O1` [Example 35, 8-[(2S,6R)-2-[[5-(4-cyclopropylpiperazin-1-yl)isoindolin-2-yl]methyl]-6-methyl-morpholin-4-yl]quinoxaline-5-carbonitrile], with 0.009 µM; and `CC1CN(c2ccc3c(c2)CN(C[C@H]2CN(c4ccc(C#N)c5nccnc45)C[C@@H](C)O2)C3)CCN1` (stereo partly drawn) [Example 36, 8-[(2R,6S)-2-methyl-6-[[5-(3-methylpiperazin-1-yl)isoindolin-2-yl]methyl]morpholin-4-yl]quinoxaline-5-carbonitrile], with less than 0.003 µM. Then `COCCN1CCN(c2ccc3c(c2)CN(C[C@H]2CN(c4ccc(C#N)c5nccnc45)C[C@@H](C)O2)C3)CC1` [Example 37, 8-[(2S,6R)-2-[[5-[4-(2-methoxyethyl)piperazin-1-yl]isoindolin-2-yl]methyl]-6-methyl-morpholin-4-yl]quinoxaline-5-carbonitrile], with 0.009 µM. Then `C[C@@H]1CN(c2ccc(C#N)c3nccnc23)C[C@H](CN2Cc3ccc(N4CCNC5(CC5)C4)cc3C2)O1` [Example 38, 8-[(2S,6R)-2-[[5-(4,7-diazaspiro[2.5]octan-7-yl)isoindolin-2-yl]methyl]-6-methyl-morpholin-4-yl]quinoxaline-5-carbonitrile], with 0.005 µM. Turning to `C[C@@H]1CN(c2ccc(C#N)c3nccnc23)C[C@H](CN2Cc3ccc(N4CCN5CCCCC5C4)cc3C2)O1` (stereo partly drawn) [Example 40, 8-[(2S,6R)-2-[[5-(1,3,4,6,7,8,9,9a-octahydropyrido[1,2-a]pyrazin-2-yl)isoindolin-2-yl]methyl]-6-methyl-morpholin-4-yl]quinoxaline-5-carbonitrile], the IC50 amounted to 0.004 µM. On to `C[C@@H]1CN(c2ccc(C#N)c3nccnc23)C[C@H](CN2Cc3ccc(N4C5CCC4CNC5)cc3C2)O1` [Example 41, 8-[(2S,6R)-2-[[5-(3,8-diazabicyclo[3.2.1]octan-8-yl)isoindolin-2-yl]methyl]-6-methyl-morpholin-4-yl]quinoxaline-5-carbonitrile], for which the IC50 was 0.009 µM. Then `C[C@@H]1CN(c2ccc(C#N)c3ncccc23)C[C@H](CN2Cc3ccc(N4CC5CCC(C4)N5)cc3C2)O1` [Example 42, 5-[(2S,6R)-2-[[5-(3,8-diazabicyclo[3.2.1]octan-3-yl)isoindolin-2-yl]methyl]-6-methyl-morpholin-4-yl]quinoline-8-carbonitrile], with 0.013 µM; and `C[C@@H]1CN(c2ccc(C#N)c3ncccc23)C[C@H](CN2Cc3ccc(N4C5CCC4CNC5)cc3C2)O1` [Example 43, 5-[(2S,6R)-2-[[5-(3,8-diazabicyclo[3.2.1]octan-8-yl)isoindolin-2-yl]methyl]-6-methyl-morpholin-4-yl]quinoline-8-carbonitrile], with 0.012 µM; and `C[C@@H]1CN(c2ccc(C#N)c3ncccc23)C[C@H](CN2Cc3ccc(N4C5CNCC4COC5)cc3C2)O1` [Example 46, 5-[(2R,6S)-2-methyl-6-[[5-(3-oxa-7,9-diazabicyclo[3.3.1]nonan-9-yl)isoindolin-2-yl]methyl]morpholin-4-yl]quinoline-8-carbonitrile], with 0.019 µM. With `C[C@@H]1CN(c2ccc(C#N)c3ncccc23)C[C@H](CN2Cc3ccc(N4CC5(CNC5)C4)cc3C2)O1` [Example 47, 5-[(2S,6R)-2-[[5-(2,6-diazaspiro[3.3]heptan-2-yl)isoindolin-2-yl]methyl]-6-methyl-morpholin-4-yl]quinoline-8-carbonitrile], the IC50 was 0.023 µM. Take `CC1c2ccc(N3CCNCC3)cc2CN1C[C@H]1CN(c2ccc(C#N)c3ncccc23)C[C@@H](C)O1` (stereo partly drawn) [Example 48, 5-[(2R,6S)-2-methyl-6-[(1-methyl-5-piperazin-1-yl-isoindolin-2-yl)methyl]morpholin-4-yl]quinoline-8-carbonitrile]: the IC50 stood at 0.018 µM. Then `C[C@@H]1CN(c2ccc(C#N)c3nccnc23)C[C@H](CN2Cc3ccc(N4CC5COCC(C4)N5)cc3C2)O1` [Example 49, 8-[(2R,6S)-2-methyl-6-[[5-(3-oxa-7,9-diazabicyclo[3.3.1]nonan-7-yl)isoindolin-2-yl]methyl]morpholin-4-yl]quinoxaline-5-carbonitrile], with 0.014 µM; and `CCOC(=O)C1CNCCN1c1ccc2c(c1)CN(C[C@H]1CN(c3ccc(C#N)c4ncccc34)C[C@@H](C)O1)C2` (stereo partly drawn) [Example 50, Ethyl 1-[2-[[(2S,6R)-4-(8-cyano-5-quinolyl)-6-methyl-morpholin-2-yl]methyl]isoindolin-5-yl] piperazine-2-carboxylate], with 0.033 µM.
